Experiments:
[1] = molecular target: Activin receptor type-1 (Homo sapiens) (UniProt Q04771); conditions: Compound concentration 1000.0 nM
[2] = molecular target: Activin receptor type-2B (Homo sapiens) (UniProt Q13705); conditions: Compound concentration 1000.0 nM
[3] = molecular target: 5'-AMP-activated protein kinase catalytic subunit alpha-2 (Homo sapiens) (UniProt P54646); conditions: Compound concentration 1000.0 nM
[4] = molecular target: Calcium/calmodulin-dependent protein kinase type 1 (Homo sapiens) (UniProt Q14012); conditions: Compound concentration 1000.0 nM
[5] = molecular target: Cyclin-dependent kinase 9 (Homo sapiens) (UniProt P50750); conditions: Compound concentration 1000.0 nM
Sequence of Cyclin-dependent kinase 9 (Homo sapiens) (P50750 whole entry): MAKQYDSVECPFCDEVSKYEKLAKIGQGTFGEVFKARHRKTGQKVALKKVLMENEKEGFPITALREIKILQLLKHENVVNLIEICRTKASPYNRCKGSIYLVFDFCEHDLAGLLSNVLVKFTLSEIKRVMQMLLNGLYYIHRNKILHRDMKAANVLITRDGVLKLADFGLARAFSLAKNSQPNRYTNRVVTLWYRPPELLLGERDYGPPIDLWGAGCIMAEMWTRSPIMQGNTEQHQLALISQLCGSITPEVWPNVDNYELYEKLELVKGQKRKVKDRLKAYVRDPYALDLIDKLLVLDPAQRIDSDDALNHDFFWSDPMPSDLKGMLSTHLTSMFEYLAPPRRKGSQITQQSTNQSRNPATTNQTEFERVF

[6] = molecular target: Serine/threonine-protein kinase DCLK2 (Homo sapiens) (UniProt Q8N568); conditions: Compound concentration 1000.0 nM
[7] = molecular target: Dual specificity tyrosine-phosphorylation-regulated kinase 1B (Homo sapiens) (UniProt Q9Y463); conditions: Compound concentration 1000.0 nM
[8] = molecular target: Dual specificity tyrosine-phosphorylation-regulated kinase 2 (Homo sapiens) (UniProt Q92630); conditions: Compound concentration 1000.0 nM
[9] = tested on: Epidermal growth factor receptor (Homo sapiens), P00533 [L858R]; conditions: Compound concentration 1000.0 nM
[10] = tested on: Epidermal growth factor receptor (Homo sapiens), P00533 [L858R,T790M]; conditions: Compound concentration 1000.0 nM
[11] = molecular target: Receptor tyrosine-protein kinase erbB-3 (Homo sapiens) (UniProt P21860); conditions: Compound concentration 1000.0 nM
[12] = molecular target: Mitogen-activated protein kinase 4 (Homo sapiens) (UniProt P31152); conditions: Compound concentration 1000.0 nM
[13] = molecular target: Fibroblast growth factor receptor 1 (Homo sapiens) (UniProt P11362); conditions: Compound concentration 1000.0 nM
[14] = molecular target: Tyrosine-protein kinase Fgr (Homo sapiens) (UniProt P09769); conditions: Compound concentration 1000.0 nM
[15] = tested on: Receptor-type tyrosine-protein kinase FLT3 (Homo sapiens), P36888 [D835H]; conditions: Compound concentration 1000.0 nM
[16] = tested on: Receptor-type tyrosine-protein kinase FLT3 (Homo sapiens), P36888 [D835Y]; conditions: Compound concentration 1000.0 nM
[17] = molecular target: Tyrosine-protein kinase JAK3 (Homo sapiens) (UniProt P52333); conditions: Compound concentration 1000.0 nM
Sequence of Tyrosine-protein kinase JAK3 (Homo sapiens) (P52333 whole entry): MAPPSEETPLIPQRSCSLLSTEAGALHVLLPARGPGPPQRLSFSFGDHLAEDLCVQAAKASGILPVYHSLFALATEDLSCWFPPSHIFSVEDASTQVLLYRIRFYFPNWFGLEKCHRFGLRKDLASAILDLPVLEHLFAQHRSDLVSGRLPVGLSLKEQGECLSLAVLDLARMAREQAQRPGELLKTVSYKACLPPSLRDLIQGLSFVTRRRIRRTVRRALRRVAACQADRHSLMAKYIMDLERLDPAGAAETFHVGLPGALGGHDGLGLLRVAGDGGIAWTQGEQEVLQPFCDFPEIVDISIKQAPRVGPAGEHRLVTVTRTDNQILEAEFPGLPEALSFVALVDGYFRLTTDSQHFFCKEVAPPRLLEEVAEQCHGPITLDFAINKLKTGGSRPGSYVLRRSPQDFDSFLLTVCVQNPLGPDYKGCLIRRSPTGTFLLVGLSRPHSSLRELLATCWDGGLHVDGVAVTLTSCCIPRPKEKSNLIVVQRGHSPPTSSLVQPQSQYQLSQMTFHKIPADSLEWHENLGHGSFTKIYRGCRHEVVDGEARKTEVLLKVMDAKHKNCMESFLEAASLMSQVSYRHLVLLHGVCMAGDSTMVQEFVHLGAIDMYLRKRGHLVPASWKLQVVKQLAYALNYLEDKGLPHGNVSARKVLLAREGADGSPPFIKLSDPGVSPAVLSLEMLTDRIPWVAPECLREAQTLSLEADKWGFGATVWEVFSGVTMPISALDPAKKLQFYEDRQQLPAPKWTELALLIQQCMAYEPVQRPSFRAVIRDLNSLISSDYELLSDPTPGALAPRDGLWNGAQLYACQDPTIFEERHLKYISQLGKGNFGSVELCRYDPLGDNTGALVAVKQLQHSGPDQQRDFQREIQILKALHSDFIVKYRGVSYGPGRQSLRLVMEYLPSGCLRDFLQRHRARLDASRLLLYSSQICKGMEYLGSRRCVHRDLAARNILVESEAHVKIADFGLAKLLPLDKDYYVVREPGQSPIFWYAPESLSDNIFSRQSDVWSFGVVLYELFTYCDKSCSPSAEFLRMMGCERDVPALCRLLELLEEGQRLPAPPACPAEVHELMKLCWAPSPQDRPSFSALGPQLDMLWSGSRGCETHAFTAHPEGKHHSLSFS

[18] = molecular target: Tyrosine-protein kinase Lyn (Homo sapiens) (UniProt P07948); conditions: Compound concentration 1000.0 nM
[19] = tested on: Hepatocyte growth factor receptor (Homo sapiens), P08581 [M1250T]; conditions: Compound concentration 1000.0 nM
[20] = molecular target: Serine/threonine-protein kinase MRCK alpha (Homo sapiens) (UniProt Q5VT25); conditions: Compound concentration 1000.0 nM
Sequence of Serine/threonine-protein kinase MRCK alpha (Homo sapiens) (Q5VT25 whole entry): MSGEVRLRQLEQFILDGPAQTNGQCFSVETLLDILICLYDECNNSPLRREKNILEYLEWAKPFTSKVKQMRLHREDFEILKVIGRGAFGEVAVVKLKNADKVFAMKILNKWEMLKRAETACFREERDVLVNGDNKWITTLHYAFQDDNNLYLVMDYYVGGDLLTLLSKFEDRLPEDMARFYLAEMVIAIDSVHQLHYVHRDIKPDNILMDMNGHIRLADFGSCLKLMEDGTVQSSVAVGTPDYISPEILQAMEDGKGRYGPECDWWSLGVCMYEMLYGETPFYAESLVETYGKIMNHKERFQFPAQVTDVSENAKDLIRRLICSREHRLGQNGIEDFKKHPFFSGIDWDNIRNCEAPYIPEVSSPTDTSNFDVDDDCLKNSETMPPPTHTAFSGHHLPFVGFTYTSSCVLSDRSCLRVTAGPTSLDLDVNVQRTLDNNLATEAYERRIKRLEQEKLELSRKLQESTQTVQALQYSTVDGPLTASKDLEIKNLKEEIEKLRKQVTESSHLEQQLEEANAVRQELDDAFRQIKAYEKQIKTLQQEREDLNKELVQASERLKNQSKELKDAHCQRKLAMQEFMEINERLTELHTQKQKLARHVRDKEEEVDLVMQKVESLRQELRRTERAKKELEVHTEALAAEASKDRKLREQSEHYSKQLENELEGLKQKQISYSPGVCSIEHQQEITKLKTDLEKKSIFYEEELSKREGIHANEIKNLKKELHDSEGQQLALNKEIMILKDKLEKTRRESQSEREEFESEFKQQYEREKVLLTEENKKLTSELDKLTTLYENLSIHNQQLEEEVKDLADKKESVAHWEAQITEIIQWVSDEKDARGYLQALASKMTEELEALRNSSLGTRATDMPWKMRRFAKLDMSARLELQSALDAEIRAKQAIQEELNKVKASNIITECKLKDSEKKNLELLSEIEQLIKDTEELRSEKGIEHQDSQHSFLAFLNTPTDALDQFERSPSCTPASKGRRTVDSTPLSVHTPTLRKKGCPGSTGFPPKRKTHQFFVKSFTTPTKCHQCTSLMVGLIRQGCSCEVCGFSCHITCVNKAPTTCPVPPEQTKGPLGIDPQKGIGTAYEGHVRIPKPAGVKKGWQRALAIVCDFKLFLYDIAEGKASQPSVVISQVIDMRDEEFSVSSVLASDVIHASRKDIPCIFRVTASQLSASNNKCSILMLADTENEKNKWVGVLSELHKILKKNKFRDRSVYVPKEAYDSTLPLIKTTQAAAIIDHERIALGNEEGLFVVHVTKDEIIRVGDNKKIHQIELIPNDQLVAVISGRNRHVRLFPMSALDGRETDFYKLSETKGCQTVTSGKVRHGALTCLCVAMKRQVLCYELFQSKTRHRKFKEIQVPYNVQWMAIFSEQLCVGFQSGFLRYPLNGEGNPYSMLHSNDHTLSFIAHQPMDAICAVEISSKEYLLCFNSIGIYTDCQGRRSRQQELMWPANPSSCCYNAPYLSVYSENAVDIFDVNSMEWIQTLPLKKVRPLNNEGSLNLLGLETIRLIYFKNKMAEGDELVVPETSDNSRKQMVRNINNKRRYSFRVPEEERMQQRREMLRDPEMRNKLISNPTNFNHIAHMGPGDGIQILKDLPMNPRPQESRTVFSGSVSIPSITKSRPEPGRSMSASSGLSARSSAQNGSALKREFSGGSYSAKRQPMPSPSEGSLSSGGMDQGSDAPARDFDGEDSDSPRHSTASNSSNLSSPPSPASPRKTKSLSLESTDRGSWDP

[21] = molecular target: Serine/threonine-protein kinase Nek2 (Homo sapiens) (UniProt P51955); conditions: Compound concentration 1000.0 nM
[22] = molecular target: Mitogen-activated protein kinase kinase kinase 14 (Homo sapiens) (UniProt Q99558); conditions: Compound concentration 1000.0 nM
[23] = molecular target: Cyclin-dependent kinase 14 (Homo sapiens) (UniProt O94921); conditions: Compound concentration 1000.0 nM
[24] = tested on: Phosphatidylinositol 4,5-bisphosphate 3-kinase catalytic subunit alpha isoform (Homo sapiens), P42336 [C420R]; conditions: Compound concentration 1000.0 nM
[25] = tested on: Phosphatidylinositol 4,5-bisphosphate 3-kinase catalytic subunit alpha isoform (Homo sapiens), P42336 [E545A]; conditions: Compound concentration 1000.0 nM
[26] = molecular target: Serine/threonine-protein kinase pim-3 (Homo sapiens) (UniProt Q86V86); conditions: Compound concentration 1000.0 nM
[27] = molecular target: Phosphatidylinositol 4-phosphate 5-kinase type-1 alpha (Homo sapiens) (UniProt Q99755); conditions: Compound concentration 1000.0 nM
[28] = molecular target: cAMP-dependent protein kinase catalytic subunit alpha (Homo sapiens) (UniProt P17612); conditions: Compound concentration 1000.0 nM
[29] = molecular target: Serine/threonine-protein kinase N2 (Homo sapiens) (UniProt Q16513); conditions: Compound concentration 1000.0 nM
[30] = molecular target: Serine/threonine-protein kinase PLK1 (Homo sapiens) (UniProt P53350); conditions: Compound concentration 1000.0 nM
[31] = tested on: Proto-oncogene tyrosine-protein kinase receptor Ret (Homo sapiens), P07949 [V804L]; conditions: Compound concentration 1000.0 nM
[32] = molecular target: Ribosomal protein S6 kinase alpha-4 (Homo sapiens) (UniProt O75676); conditions: Compound concentration 1000.0 nM
[33] = molecular target: Serine/threonine-protein kinase 16 (Homo sapiens) (UniProt O75716); conditions: Compound concentration 1000.0 nM
[34] = molecular target: STE20/SPS1-related proline-alanine-rich protein kinase (Homo sapiens) (UniProt Q9UEW8); conditions: Compound concentration 1000.0 nM
[35] = molecular target: Serine/threonine-protein kinase TAO3 (Homo sapiens) (UniProt Q9H2K8); conditions: Compound concentration 1000.0 nM
[36] = molecular target: Tyrosine-protein kinase Tec (Homo sapiens) (UniProt P42680); conditions: Compound concentration 1000.0 nM
[37] = molecular target: Serine/threonine-protein kinase ULK3 (Homo sapiens) (UniProt Q6PHR2); conditions: Compound concentration 1000.0 nM
Sequence of Serine/threonine-protein kinase ULK3 (Homo sapiens) (Q6PHR2 whole entry): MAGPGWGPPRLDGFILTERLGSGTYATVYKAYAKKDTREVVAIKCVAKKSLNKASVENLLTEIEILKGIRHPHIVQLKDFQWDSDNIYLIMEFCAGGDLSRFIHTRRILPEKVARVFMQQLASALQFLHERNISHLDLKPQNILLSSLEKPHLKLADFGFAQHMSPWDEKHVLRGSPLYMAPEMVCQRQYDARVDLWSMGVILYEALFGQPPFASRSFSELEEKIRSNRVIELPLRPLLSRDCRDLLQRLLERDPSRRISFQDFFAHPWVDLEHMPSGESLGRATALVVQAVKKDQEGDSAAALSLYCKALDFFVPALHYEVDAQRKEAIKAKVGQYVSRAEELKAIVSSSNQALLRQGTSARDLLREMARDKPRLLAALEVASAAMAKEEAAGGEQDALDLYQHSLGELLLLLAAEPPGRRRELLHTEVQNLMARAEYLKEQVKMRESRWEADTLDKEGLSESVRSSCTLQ

[38] = molecular target: Wee1-like protein kinase (Homo sapiens) (UniProt P30291); conditions: Compound concentration 1000.0 nM
[39] = molecular target: 5-hydroxytryptamine receptor 1B (Homo sapiens) (UniProt P28222); conditions: Compound concentration 10.0 uM
[40] = molecular target: 5-hydroxytryptamine receptor 2B (Homo sapiens) (UniProt P41595); conditions: Compound concentration 10.0 uM
[41] = molecular target: Sodium-dependent dopamine transporter (Homo sapiens) (UniProt Q01959); conditions: Compound concentration 10.0 uM
[42] = molecular target: GABA-A receptor; anion channel (Rattus norvegicus) (UniProt O09028+P15431+P18506+P18508+P19969+P20236+P23574+P23576+P28471+P28473+P30191+P62813+P63079+P63138+Q91ZM7+Q9ES14); conditions: Compound concentration 10.0 uM
[43] = molecular target: Sigma non-opioid intracellular receptor 1 (Homo sapiens) (UniProt Q99720); conditions: Compound concentration 10.0 uM

Sequence of Activin receptor type-1 (Homo sapiens) (Q04771 whole entry): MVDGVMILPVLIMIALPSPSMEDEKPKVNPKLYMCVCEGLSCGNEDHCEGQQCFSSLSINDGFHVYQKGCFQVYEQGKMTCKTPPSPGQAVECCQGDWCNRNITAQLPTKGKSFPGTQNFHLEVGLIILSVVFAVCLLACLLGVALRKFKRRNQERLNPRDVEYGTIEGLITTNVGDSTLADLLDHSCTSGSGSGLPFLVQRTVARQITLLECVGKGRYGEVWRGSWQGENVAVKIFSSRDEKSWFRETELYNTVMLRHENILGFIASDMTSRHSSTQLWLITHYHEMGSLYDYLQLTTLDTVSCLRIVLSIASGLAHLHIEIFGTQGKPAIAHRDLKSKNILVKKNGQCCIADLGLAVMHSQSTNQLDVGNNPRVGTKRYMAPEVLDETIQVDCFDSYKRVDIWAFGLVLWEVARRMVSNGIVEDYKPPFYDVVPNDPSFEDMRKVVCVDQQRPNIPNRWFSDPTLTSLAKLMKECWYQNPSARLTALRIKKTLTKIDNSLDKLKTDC
Sequence of Activin receptor type-2B (Homo sapiens) (Q13705 whole entry): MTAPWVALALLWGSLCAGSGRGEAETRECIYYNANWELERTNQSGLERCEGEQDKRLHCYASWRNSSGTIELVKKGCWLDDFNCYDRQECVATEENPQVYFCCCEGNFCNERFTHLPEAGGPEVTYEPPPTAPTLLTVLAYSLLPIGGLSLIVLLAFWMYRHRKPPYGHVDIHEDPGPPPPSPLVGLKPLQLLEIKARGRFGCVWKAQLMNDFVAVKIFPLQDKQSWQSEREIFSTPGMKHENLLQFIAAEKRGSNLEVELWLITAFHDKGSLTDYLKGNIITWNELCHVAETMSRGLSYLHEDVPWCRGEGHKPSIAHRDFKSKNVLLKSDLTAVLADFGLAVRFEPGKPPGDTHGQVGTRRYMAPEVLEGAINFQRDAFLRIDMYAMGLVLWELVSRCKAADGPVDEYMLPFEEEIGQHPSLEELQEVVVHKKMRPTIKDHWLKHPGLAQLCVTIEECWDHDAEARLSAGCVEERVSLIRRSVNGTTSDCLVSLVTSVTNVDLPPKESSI

N#CC1(c2ccccn2)CCN(Cc2cc(C(=O)N3CCCC3)c(=O)n3ccccc23)CC1
inactive: residual activity [1] 83% | residual activity [2] 75% | residual activity [3] 100% | residual activity [4] 100% | residual activity [5] 88% | residual activity [6] 100% | residual activity [7] 53% | residual activity [8] 100% | residual activity [9] 87% | residual activity [10] 100% | residual activity [11] 93% | residual activity [12] 76% | residual activity [13] 93% | residual activity [14] 100% | residual activity [15] 87% | residual activity [16] 71% | residual activity [17] 100% | residual activity [18] 99% | residual activity [19] 80% | residual activity [20] 84% | residual activity [21] 95% | residual activity [22] 100% | residual activity [23] 100% | residual activity [24] 87% | residual activity [25] 78% | residual activity [26] 99% | residual activity [27] 100% | residual activity [28] 88% | residual activity [29] 88% | residual activity [30] 100% | residual activity [31] 92% | residual activity [32] 100% | residual activity [33] 100% | residual activity [34] 75% | residual activity [35] 100% | residual activity [36] 100% | residual activity [37] 96% | residual activity [38] 74% | inhibition [39] 13% | inhibition [40] 5.44% | inhibition [41] 18.6% | inhibition [42] 23.2% | inhibition [43] 16.3%

N#CC1(c2ccccn2)CCN(Cc2cc(C(=O)O)c(=O)n3ccccc23)CC1 [MSD-M1PAM]
inactive: residual activity [1] 96% | residual activity [2] 97% | residual activity [3] 100% | residual activity [4] 76% | residual activity [5] 99% | residual activity [6] 100% | residual activity [7] 98% | residual activity [8] 95% | residual activity [9] 86% | residual activity [10] 71% | residual activity [11] 100% | residual activity [12] 100% | residual activity [13] 98% | residual activity [14] 94% | residual activity [15] 100% | residual activity [16] 95% | residual activity [17] 95% | residual activity [18] 100% | residual activity [19] 96% | residual activity [20] 100% | residual activity [21] 100% | residual activity [22] 73% | residual activity [23] 100% | residual activity [24] 97% | residual activity [25] 100% | residual activity [26] 100% | residual activity [27] 100% | residual activity [28] 88% | residual activity [29] 100% | residual activity [30] 70% | residual activity [31] 100% | residual activity [32] 65% | residual activity [33] 100% | residual activity [34] 56% | residual activity [35] 78% | residual activity [36] 100% | residual activity [37] 89% | residual activity [38] 99% | inhibition [39] 2.72% | inhibition [40] 3.23% | inhibition [41] -7.27% | inhibition [42] 20.2% | inhibition [43] 29.1%

From ChEMBL document CHEMBL4507295 (2021)
